According to patent publication US20260226494A1 (HANGZHOU RUIFENG BIOSCIENCE CO., LTD., priority 2023, published 2026):

How the values were obtained:
[1] = system: T1 generation soybean transgenic events; assay: Flazasulfuron tolerance test on progeny of 54 single-copy events; set-up: dose or concentration left out as unconfirmed; conditions: […] g a.i./ha
[2] = system: T1 generation soybean transgenic events; conditions: in vivo
[3] = system: T1 generation of five transformation events (XP-2, XP-195, XP-325, XP-326, XP-552); set-up: species or system Glycine max; conditions: in vivo
Description: At the V4 stage, 225 g a.i./ha of flazasulfuron was sprayed, and the tolerance of each transformant was observed.

[4] = system: transgenic soybean event XP-2; assay: Field herbicide tolerance test, single herbicides (Example 7); conditions: for tolerance level of transgenic soybean event XP-2 to herbicides (in words): field test, Table 10 doses
Description: (§1) A randomized block design was adopted with a total of 24 plots, each measuring 4 m×5 m. […] A 1 m interval was set between adjacent plots, with three replicates for each soybean type. At the V3 growth stage, the following treatments were applied: 1) no herbicide application; 2) respective applications of glyphosate at 1800 g a.i./ha, MCPA at 1848 g a.i./ha, mesotrione at 123.75 g a.i./ha, penoxsulam at 45 g a.i./ha, nicosulfuron at 102 g a.i./ha, pyrazosulfuron-ethyl at 56.25 g a.i./ha, and flazasulfuron at 112.5 g a.i./ha. Seedling emergence rate, plant height (measured from the tallest 10 plants), and herbicide damage symptoms (evaluated from the 10 plants with the mildest symptoms) were investigated at 1, 2, and 4 weeks post-application. Herbicide damage symptom grading was performed according to GB/f 17980.42-2000. The formula for calculating herbicide damage rate was as follows:
(§2) [formula] • (×-herbicide damage rate in percentage; N-number of plants with the same level of herbicide damage; S-herbicide damage level; T-total number of plants evaluated; M-highest level)∘

[5] = system: non-transgenic soybean variety Wandou 28; assay: as above
Description: as §1, §2

[6] = system: T0 transgenic soybean plants; assay: Greenhouse glyphosate spray screen of T0 transgenic events; assay type: in vivo, Glycine max; conditions: 1800 g a.i./ha sprayed at V4 stage; 546 T0 events
Description: After hardening, 685 T0 generation transgenic events obtained from Example 1 were transplanted into natural soil in a greenhouse. Among them, 546 seedlings successfully survived in the greenhouse. When the T0 transgenic soybean plants reached the V4 vegetative stage, 1800 g a.i/ha ofglyphosate was sprayed.

[7] = XP-2, 2 weeks after spraying at V3, doses as Table 10 c1
[8] = XP-2, 4 weeks after spraying at V3, doses as Table 10 c1
[9] = Wandou 28, 1 week after spraying at V3, doses as Table 10 c1
[10] = Wandou 28, 2 weeks after spraying at V3, doses as Table 10 c1
[11] = Wandou 28, 4 weeks after spraying at V3, doses as Table 10 c1

| SMILES | Height(cm) After 2 weeks [4, 7] [cm] | damage rate(%) After 2 weeks [4, 7] [%] | Height(cm) After 4 weeks [4, 8] [cm] | damage rate(%) After 4 weeks [4, 8] [%] | tolerance level of transgenic soybean event XP-2 to herbicides (in words) [4] | damage rate(%) After 1 week [5, 9] [%] | damage rate(%) After 2 weeks [5, 10] [%] | damage rate(%) After 4 weeks [5, 11] [%] | further results |
| --- | --- | --- | --- | --- | --- | --- | --- | --- | --- |
| COc1cc(OC)nc(NC(=O)NS(=O)(=O)c2ncccc2C(F)(F)F)n1 [Flazasulfuron, flazasulfuron] | – | – | – | – | – | – | – | – | Number of Events: Plant death [1]: 0; Number of Events: No phytotoxicity [2]: 5; Number of Events: having phytotoxicity, New leaves getting yellow [2]: 49; tolerance of each transformant (in words) [3]: XP-2 exhibited the highest tolerance; Height(cm) After 1 week ([4]; in vivo): 12.49 ± 0.35 cm; Height(cm) After 2 weeks ([4]; in vivo): 14.74 ± 0.2 cm; Height(cm) After 4 weeks ([4]; in vivo): 21.69 ± 0.32 cm; Seedling rate % ([4]; in vivo): 100%; damage rate(%) After 1 week ([4]; in vivo): 0%; damage rate(%) After 2 weeks ([4]; in vivo): 0%; damage rate(%) After 4 weeks ([4]; in vivo): 0%; Seedling rate % ([5]; in vivo): 0%; damage rate(%) After 1 week ([5]; in vivo): 100%; damage rate(%) After 2 weeks ([5]; in vivo): 100%; damage rate(%) After 4 weeks ([5]; in vivo): 100% |
| O=C(O)CNCP(=O)(O)O [Glyphosate, glyphosate] | 14.58 ± 0.24 | 0 | 21.6 ± 0.52 | 0 | high tolerance | 100 | 100 | 100 | Number of Events: Growth stunted, dwarfed plants (phytotoxicity) [6]: 327; Number of Events: Plant death [6]: 132; Number of Events: no phytotoxicity [6]: 87 |
| Cc1cc(Cl)ccc1OCC(=O)O [MCPA] | 14.7 ± 0.32 | 0 | 21.6 ± 0.52 | 0 | high tolerance | 100 | 100 | 100 | – |
| CS(=O)(=O)c1ccc(C(=O)C2C(=O)CCCC2=O)c([N+](=O)[O-])c1 [Mesotrione, mesotrione] | 14.59 ± 0.24 | 0 | 21.63 ± 0.52 | 0 | high tolerance | 100 | 100 | 100 | – |
| COc1cc(OC)nc(NC(=O)NS(=O)(=O)c2ncccc2C(=O)N(C)C)n1 [Nicosulfuron, nicosulfuron] | 14.73 ± 0.24 | 0 | 21.66 ± 0.53 | 0 | high tolerance | 100 | 100 | 100 | – |
| COc1cnc(OC)n2nc(NS(=O)(=O)c3c(OCC(F)F)cccc3C(F)(F)F)nc12 [Penoxsulam, penoxsulam] | – | – | – | – | – | – | – | – | Height(cm) After 1 week ([4]; in vivo): 12.75 ± 1.01 cm; Height(cm) After 2 weeks ([4]; in vivo): 14.6 ± 0.24 cm; Height(cm) After 4 weeks ([4]; in vivo): 21.61 ± 0.52 cm; Seedling rate % ([4]; in vivo): 100%; damage rate(%) After 1 week ([4]; in vivo): 0%; damage rate(%) After 2 weeks ([4]; in vivo): 0%; damage rate(%) After 4 weeks ([4]; in vivo): 0%; Seedling rate % ([5]; in vivo): 0%; damage rate(%) After 1 week ([5]; in vivo): 100%; damage rate(%) After 2 weeks ([5]; in vivo): 100%; damage rate(%) After 4 weeks ([5]; in vivo): 100% |
| CCOC(=O)c1cnn(C)c1S(=O)(=O)NC(=O)Nc1nc(OC)cc(OC)n1 [Pyrazosulfuron-ethyl, pyrazosulfuron-ethyl] | 14.6 ± 0.24 | 0 | 21.63 ± 0.52 | 0 | high tolerance | 100 | 100 | 100 | – |
